How the values were obtained:
prolyl 4-hydroxylase = target: T1, prolyl 4-hydroxylase (Gallus gallus, UniProt P16924); experiment: in vitro enzyme assay, cell free, highly purified prolyl 4-hydroxylase (test (a)); assay type: biochemical
T1 construct: a highly purified preparation of prolyl 4-hydroxylase; from tissue; chick embryos according to the cited method (own knowledge)
T1 sequence (P16924 1-516): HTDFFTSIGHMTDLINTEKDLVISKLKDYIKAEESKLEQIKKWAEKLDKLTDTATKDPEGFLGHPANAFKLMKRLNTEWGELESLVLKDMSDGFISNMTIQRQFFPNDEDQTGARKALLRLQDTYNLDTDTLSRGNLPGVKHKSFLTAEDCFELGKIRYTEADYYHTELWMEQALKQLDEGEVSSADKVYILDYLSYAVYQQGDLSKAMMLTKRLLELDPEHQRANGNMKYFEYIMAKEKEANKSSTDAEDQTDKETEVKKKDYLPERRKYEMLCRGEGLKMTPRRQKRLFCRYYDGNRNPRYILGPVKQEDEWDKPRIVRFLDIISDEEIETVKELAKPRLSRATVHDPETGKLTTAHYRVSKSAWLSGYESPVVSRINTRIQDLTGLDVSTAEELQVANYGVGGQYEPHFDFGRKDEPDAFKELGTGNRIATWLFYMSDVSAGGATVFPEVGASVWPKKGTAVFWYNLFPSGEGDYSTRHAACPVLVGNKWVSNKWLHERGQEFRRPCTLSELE
T1 sequence (P09102 23-515 partner): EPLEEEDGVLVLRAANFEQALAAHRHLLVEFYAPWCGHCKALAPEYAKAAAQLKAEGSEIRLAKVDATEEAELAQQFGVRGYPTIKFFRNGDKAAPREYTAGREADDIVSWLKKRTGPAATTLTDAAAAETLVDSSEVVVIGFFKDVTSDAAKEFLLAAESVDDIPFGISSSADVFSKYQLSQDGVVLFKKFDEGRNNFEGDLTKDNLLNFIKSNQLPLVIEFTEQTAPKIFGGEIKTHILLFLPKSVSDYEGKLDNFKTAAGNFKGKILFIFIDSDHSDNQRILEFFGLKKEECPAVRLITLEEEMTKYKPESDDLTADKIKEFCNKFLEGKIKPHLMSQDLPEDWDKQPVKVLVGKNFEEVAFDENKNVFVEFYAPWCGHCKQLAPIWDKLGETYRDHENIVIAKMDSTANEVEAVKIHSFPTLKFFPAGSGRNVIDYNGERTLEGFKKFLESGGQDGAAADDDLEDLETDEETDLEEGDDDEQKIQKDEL
Protocol: (a) An in vitro enzyme assay system, which assesses the inhibitory properties of a test compound in a cell free system using a highly purified preparation of prolyl 4-hydroxylase. The enzyme preparation was obtained using the method described by N. Kedersha and R. Berg (Collagen Related Research, 1:345 (1981)) and the activity of a test compound was measured using the method described by C. J. Cunliffe, T. J. Franklin and R. Gaskell (Biochem. J., 240:617 (1986)).

[1] = system: embryonic chick tendon cells; experiment: embryonic chick tendon cells: inhibition of hydroxylation of prolyl residues within collagen (test (b)); assay type: cell-based; conditions: Gallus gallus, hydroxylation of prolyl residues in collagen
Protocol: (b) An in vitro assay system involving incubating embryonic chick tendon cells in the presence of a test compound and measuring the inhibition of hydroxylation at the 4-position of prolyl residues within the available collagen. The embryonic chick tendon cells were prepared from the leg tendons of 17-day chick embryos using the method of P. Dehm and D. Prockop (Biochem. Biophys Acta, 240:358 (1971)). The cells were incubated in the presence of [^14C]- and [^3H]-labelled L-proline and the extent of hydroxylation at the 4-trans-position of the prolyl residues within the collagen was determined using the procedure described by T. J. Franklin and M. Hitchen (Biochem. J, 261:127-130 (1989)).

3T6 cells = experiment: 3T6 cells: inhibition of hydroxylation of prolyl residues within collagen (test (c)); assay type: cell-based; conditions: hydroxylation of prolyl residues in collagen
Protocol: (c) An in vitro assay involving incubating cultures of 3T6 cells with a test compound and [^14C]- and [^3H]-labelled L-proline, and measuring the inhibition of hydroxylation at the 4-trans-position of prolyl residues within the available collagen using the procedure described by T. J. Franklin and M. Hitchen (Biochem. J., 261:127-130 (1989)).

[2] = system: collagen within the uteri of immature female rats; experiment: in vivo inhibition of prolyl hydroxylation within collagen in uteri of immature female rats (test (d)); conditions: Rattus norvegicus, po; 50 mg/kg orally, compound dosed 2 hours before proline administration
Protocol: (d) An in vivo assay involving the measurement of the inhibition by a test compound of hydroxylation at the 4-trans-position of prolyl residues within collagen within the uteri of immature (20-21 day) female rats. The test compounds were administered either orally or intraperitoneally to the rats in which uterine collagen synthesis had been stimulated by the subcutaneous administration of a solution of oestradiol benzoate (0.5 μg on each of two successive days) in arachis […] oil. The rats were dosed with 5 μCuries of [^14C]-L-proline and the uteri were taken 2 hours after the dosing of the radiolabelled proline and sonicated. Collagen was extracted by treatment of the tissue with water at 120° C. for 1 hour in an autoclave and hydrolysed by treatment with 6N hydrochloric acid for 18 hours at reflux temperature. The proline and 4-hydroxyproline residues were separated by column chromatography on a reversed-phase Spherisorb S5ODS1 column using as eluent a 89.9:10:0.1 v/v mixture of water:isopropanol:trifluoroacetic acid to which 0.3% w/v of sodium dodecylsulphate had been added. The ratio of radioactivity found in each of the proline and 4-hydroxyproline fractions was determined by liquid scintillation counting to allow the measurement of the inhibition of hydroxylation by a test compound.

[3] = system: granulation tissue in wound chamber; experiment: in vivo wound chamber model; design: species or system rat
Protocol: (e) An in vivo wound chamber model involving the measurement of histological changes in granulation tissue. The test compounds were tested in rats according to the procedures generally described in Schilling et al., Surgery 46(4):702-710 (1959), Hunt et al., Am. J. Surgery 114:302-307 (1967), and Grotendorst et al., J. Clin Inves. 76:2323-2329 (1985). More specifically, stainless wire mesh cylinders were implanted subcutaneously under the back skin of rats (two chambers per animal). The compounds of the present invention were then dissolved in DMSO and injected into each chamber on a daily basis at various concentrations from either day 0-14 or day 7-14. On day 14, the chambers were collected and the granulation tissues contained within the chambers were collected for biochemical (collagen content) or histological evaluation.
Following the in vivo wound chamber model described above, fourteen of the claimed compounds tested to determine the effectiveness of the claimed compounds in inhibiting collagen deposition in the wound chamber.

[4] = system: isoproterenol-induced myocardial fibrosis; experiment: rat isoproterenol-induced myocardial fibrosis model; assay type: in vivo; conditions: left ventricular function at week 6; 50 mg/kg oral gavage twice daily day 4 to day 11
Description: (§1) (f) Various in vivo animal models to determine the applicability of utilizing the compounds of the present invention to treat fibrotic disorders specific to certain cell types or organs. For example, a cardiac fibrosis model in rats, as generally described in Kondo et al., Cardiovascu. Res. 21:248-254 (1987), and Benjamin et al., Circulation Res. 65(3):657-670 (1989), may be used to measure the effectiveness of the compounds of the present invention to inhibit cardiac fibrosis, as well as provide evidence of the regeneration of cardiac cells upon inhibition of fibrotic cell proliferation. Similarly, the left carotid artery injury model, as described generally in Clowes et al., Lab Invest. 49:327-33 (1983), Muller et al., Am. Col. […]
The effectiveness of one of the compounds of the present invention to inhibit cardiac fibrosis and permit the regeneration of cardiac cells was tested in the cardiac fibrosis model generally described above. […] The compound was administered after suspension in 1% CMC at 50 mg/kg by oral gavage twice daily from day 4 to day 11 and histological data was evaluated on day 11 by general histology (H&E and trichrome) and immunohistochemical staining for proliferating cell nuclear antigen (PCNA). Cardiac function (left ventricular function) was measured by inserting a catheter into the left ventricle for measurement of relaxation and contraction pressure on week 6.

[5] = system: balloon injured carotid arteries; experiment: rat restenosis model (balloon carotid artery injury); assay type: in vivo; conditions: 50 mg/kg oral gavage twice daily day 0-14; day 14
Description: as §1, with “Col. Cardio. 19(2):418 (1992), and Jackson, Trends Cardiovasc. Med. 4:122-130 (1994), may be used to determine the effectiveness of the compounds of the instant invention in vascular remodeling.” for “Col.”
The effectiveness of Compound 12 in vascular remodeling, as determined in a rat restenosis model, was determined by using a left carotid artery injury rat model, as generally described above. […]

[6] = system: scar tissue in the brain following injury; experiment: brain injury model; assay type: in vivo, rat; conditions: oral gavage twice daily day 0 to 14, day 14
Description: as §1, with “Col. Cardio. 19(2):418 (1992), and Jackson, Trends Cardiovasc. Med. 4:122-130 (1994), may be used to determine the effectiveness of the compounds of the instant invention in vascular remodeling.” for “Col.”

[7] = system: kidney fibrosis after Adriamycin injection; experiment: kidney fibrosis rat model (Adriamycin); assay type: in vivo
Description: (f) Various in vivo animal models to determine the applicability of utilizing the compounds of the present invention to treat fibrotic disorders specific to certain cell types or organs. For example, a cardiac fibrosis model in rats, as generally described in Kondo et al., Cardiovascu. Res. 21:248-254 (1987), and Benjamin et al., Circulation Res. 65(3):657-670 (1989), may be used to measure the effectiveness of the compounds of the present invention to inhibit cardiac fibrosis, as well as provide evidence of the regeneration of cardiac cells upon inhibition of fibrotic cell proliferation. Similarly, the left carotid artery injury model, as described generally in Clowes et al., Lab Invest. 49:327-33 (1983), Muller et al., Am. Col. Cardio. 19(2):418 (1992), and Jackson, Trends Cardiovasc. Med. 4:122-130 (1994), may be used to determine the effectiveness of the compounds of the instant invention in vascular remodeling. Other models, such as in vivo brain injury models (see e.g., Berry et al., Acto Neurochrurgica, Suppl., 32:31-53 (1993), Logan et al., Brain Research 587:216-255 (1992)), in vivo kidney fibrosis models (see e.g., DiDonato et al., Nephron 76(2):192-200 (1997), in vivo post-surgical abdominal adhesions model (see e.g., Cohen et al., J. Trauma 30(12):S149-154 (1990), Stein & Keiser, J. Surg. Res. 11:277 (1971), Diegelman et al., J. Surg. Res. 19:239-43 (1975)) may be used to determine the effectiveness of the compounds of the instant invention to treat fibrotic disorders related to the brain, kidney, abdomen and dermis, as well as provide information related to the treatment of other major organs.
The effectiveness of the compounds of the instant invention to treat kidney fibrosis was determined using a kidney fibrosis rat model, as generally described above. More specifically, male SD rats weighing approximately 200-225 g each were injected intravenously with Adriamycin (Pharmacia, MI) on day 1 and again on day 15. The Adriamycin was dissolved in 0.5 ml sterile physiologic saline and infused slowly into the tail vein to ensure complete delivery and to avoid perivascular tissue destruction of the drug.
Three treatment groups were established following Adriamycin injections. The rats were randomly assigned to receive a twice daily gavage of Compound 12 or control (1% CMC). Five animals from each group were sacrificed on week 6, 8 or 12.

dermal incisional wound = experiment: dermal wound healing, rat incisional model; assay type: in vivo; conditions: compared to control
Protocol: FIG. 6 illustrates the tensile strength on dermal incisional wound on day 7 after oral treatment of Compound 3 and Compound 12.
FIG. 7 illustrates the tensile strength of incisional wound after local injections of Compound 12.
(§2) The effectiveness of the compounds in dermal wound healing was tested using two wound healing models—rat punch model and rat incisional model—as described above.

dermal punch wound = experiment: dermal wound healing, rat punch model; assay type: in vivo; conditions: compared to control
Protocol: FIG. 5 illustrates wound area after treatment of Compound 3 in the dermal punch model.
as §2

IC50 (prolyl 4-hydroxylase)	IC50 (3T6 cells)	melting point	SMILES	IC50 [1]	inhibition at 50 mg/kg [2]	response vs control in vivo at 0.05 mg ([3]; Rattus norvegicus, 50 μg dosage, injected into chamber daily, day 7-14 treatment, read-out: Mean Collagen content (% of Control) On Day 14)	apoptotic cell numbers (positive staining of apoptotic cells) ([3]; wound chamber)	rebound of collagen accumulation after discontinuing administration ([3]; wound chamber, at higher doses)	Contraction pressure (dP/dt, mm Hg) [4]	Relaxation pressure (Min-P, mm Hg) [4]	development of neointimal formation [5]	activation of astrocytes ([6]; GFAP staining)	collagen deposition in the scar ([6]; type I collagen staining)	development of renal hypertension ([7]; twice daily gavage, versus control)	development of kidney fibrosis (histology) ([7]; twice daily gavage, versus control (1% CMC))	Cardiac function ([7]; week 12)	long term toxicity, as measured by mean body weight and bone density ([7]; week 12)	tensile strength of wound (dermal incisional wound)	healing time (dermal punch wound)
400 nM	5.4 µM	236 to 237 °C	CCCCN(CC)C(=O)c1cnc2c3c(ccc2c1)C(=O)C(C(=O)O)C=N3 (stereo not shown) [Example 2, 8-(N-butyl-N-ethylcarbamoyl)-3-carboxy-4-oxo-3,4-dihydro-1,10-phenanthroline]	1200 nM	46%	–	–	–	–	–	–	–	–	–	–	–	–	–	–
–	–	–	O=C(O)C1C=Nc2c(ccc3cccnc23)C1=O (stereo not shown) [Compound 12, 3-carboxy-4-oxo-3,4-dihydro-1,10-phenanthroline]	–	–	80.7%	dose-dependently increased positive staining of apoptotic cells	prevented rebound of collagen accumulation	5770 ± 95.1 mm Hg	2.7 ± 0.8 mm Hg	significantly reduce the development of neointimal formation	decreased the activation of actrocytes	reduced collagen deposition in the scar	blocked the development of renal hypertension	prevented the development of kidney fibrosis	improved	not material	reduced tensil strength	increased healing time

From patent publication US20010001101A1, “Phenanthroline derivatives” (Zeneca Limited, priority 1997, published 2001)
